Data published in ChEMBL document CHEMBL1201862, “PubChem BioAssay data set” (2004).
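Following 48 hours of exposure in 96-well plates, responses at five concentrations were used to interpolate endpoints linearly. Abbreviation: GI50, concentration required for 50% inhibition of growth.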 Calls of active or inactive are those of the source. No stated cut-off is given here; in the data, active = GI50 up to about 1.1 µM and inactive = higher.

Key:
Test in all cases: growth of human tumour cells (NCI), 48 h
MDA-MB-435 = test system: MDA-MB-435
T47D = test system: T47D
U-251 = test system: U-251
NCI/ADR-RES = test system: NCI/ADR-RES
TK-10 = test system: TK-10
SNB-75 = test system: SNB-75
SR = test system: SR
OVCAR-3 = test system: OVCAR-3
SW-620 = test system: SW-620
PC-3 = test system: PC-3
UACC-257 = test system: UACC-257
OVCAR-8 = test system: OVCAR-8
Hs-578T = test system: Hs-578T
KM12 = test system: KM12
EKVX = test system: EKVX
HOP-62 = test system: HOP-62
HOP-92 = test system: HOP-92
NCI-H23 = test system: NCI-H23
UACC-62 = test system: UACC-62
RXF 393 = test system: RXF 393
NCI-H460 = test system: NCI-H460
SF-295 = test system: SF-295
HT-29 = test system: HT-29
SK-OV-3 = test system: SK-OV-3
SK-MEL-2 = test system: SK-MEL-2
MOLT-4 = test system: MOLT-4
A549 = test system: A549
OVCAR-4 = test system: OVCAR-4
MCF7 = test system: MCF7
NCI-H522 = test system: NCI-H522
DU-145 = test system: DU-145
HCT-15 = test system: HCT-15
HL-60 = test system: HL-60
ACHN = test system: ACHN
Malme-3M = test system: Malme-3M
UO-31 = test system: UO-31
K562 = test system: K562
SK-MEL-28 = test system: SK-MEL-28
SK-MEL-5 = test system: SK-MEL-5
OVCAR-5 = test system: OVCAR-5
M14 = test system: M14
SN12C = test system: SN12C
IGROV-1 = test system: IGROV-1
SF-268 = test system: SF-268
SF-539 = test system: SF-539
SNB-19 = test system: SNB-19
COLO 205 = test system: COLO 205
CAKI-1 = test system: CAKI-1
786-0 = test system: 786-0
HCT-116 = test system: HCT-116
HCC 2998 = test system: HCC 2998
CCRF-CEM = test system: CCRF-CEM
A498 = test system: A498
MDA-MB-231 = test system: MDA-MB-231
NCI-H226 = test system: NCI-H226
MDA-N = test system: MDA-N
LOX IMVI = test system: LOX IMVI
RPMI-8226 = test system: RPMI-8226

O=c1ccn(Cc2ccccc2CCl)c(=O)[nH]1
GI50 (MDA-MB-435): 28.9 µM (inactive)
GI50 (T47D): 43.9 µM (inactive)
GI50 (U-251): 29.7 µM (inactive)
GI50 (NCI/ADR-RES): 22.1 µM (inactive)
GI50 (TK-10): 39.1 µM (inactive)
GI50 (SNB-75): 45.2 µM (inactive)
GI50 (SR): 27.7 µM (inactive)
GI50 (OVCAR-3): 22.3 µM (inactive)
GI50 (SW-620): 35.5 µM (inactive)
GI50 (PC-3): 31.8 µM (inactive)
GI50 (UACC-257): 25.8 µM (inactive)
GI50 (OVCAR-8): 25.9 µM (inactive)
GI50 (Hs-578T): 29.2 µM (inactive)
GI50 (KM12): 26.5 µM (inactive)
GI50 (EKVX): 25.4 µM (inactive)
GI50 (HOP-62): 25.7 µM (inactive)
GI50 (HOP-92): 57.9 µM (inactive)
GI50 (NCI-H23): 20.4 µM (inactive)
GI50 (UACC-62): 26.9 µM (inactive)
GI50 (RXF 393): 24 µM (inactive)
GI50 (NCI-H460): > 100 µM (inactive)
GI50 (SF-295): 23.3 µM (inactive)
GI50 (HT-29): 24.2 µM (inactive)
GI50 (SK-OV-3): 46.5 µM (inactive)
GI50 (SK-MEL-2): 32.7 µM (inactive)
GI50 (MOLT-4): 40.6 µM (inactive)
GI50 (A549): 47.8 µM (inactive)
GI50 (OVCAR-4): 69.7 µM (inactive)
GI50 (MCF7): 23.6 µM (inactive)
GI50 (NCI-H522): 20.4 µM (inactive)
GI50 (DU-145): 32.4 µM (inactive)
GI50 (HCT-15): 18.4 µM
GI50 (HL-60): 37.2 µM (inactive)
GI50 (ACHN): 26.9 µM (inactive)
GI50 (Malme-3M): 20.2 µM (inactive)
GI50 (UO-31): 29.3 µM (inactive)
GI50 (K562): 34.8 µM (inactive)
GI50 (SK-MEL-28): 33.8 µM (inactive)
GI50 (SK-MEL-5): 3 µM (inactive)
GI50 (OVCAR-5): 21.5 µM (inactive)
GI50 (M14): 26.2 µM (inactive)
GI50 (SN12C): 27.6 µM (inactive)
GI50 (IGROV-1): 24.3 µM (inactive)
GI50 (SF-268): 25.7 µM (inactive)
GI50 (SF-539): 24 µM (inactive)
GI50 (SNB-19): 33.3 µM (inactive)
GI50 (COLO 205): 27.2 µM (inactive)
GI50 (CAKI-1): 25 µM (inactive)
GI50 (786-0): 20.7 µM (inactive)
GI50 (HCT-116): 21.7 µM (inactive)
GI50 (HCC 2998): 22.7 µM (inactive)
GI50 (CCRF-CEM): 30.7 µM (inactive)

COc1cc2c(cc1OC)C1C[C@]3(CCN1CC2)C(=O)N(c1ccccc1)C(=O)N3C(C)=O (some centres not stated)
GI50 (MDA-MB-435): > 200 µM (inactive)
GI50 (U-251): > 200 µM (inactive)
GI50 (NCI/ADR-RES): > 200 µM (inactive)
GI50 (TK-10): > 200 µM (inactive)
GI50 (SNB-75): > 200 µM (inactive)
GI50 (OVCAR-3): > 200 µM (inactive)
GI50 (SW-620): > 200 µM (inactive)
GI50 (PC-3): > 200 µM (inactive)
GI50 (OVCAR-8): > 200 µM (inactive)
GI50 (A498): > 200 µM (inactive)
GI50 (KM12): > 200 µM (inactive)
GI50 (EKVX): > 200 µM (inactive)
GI50 (HOP-92): > 200 µM (inactive)
GI50 (NCI-H23): > 200 µM (inactive)
GI50 (RXF 393): > 200 µM (inactive)
GI50 (SF-295): > 200 µM (inactive)
GI50 (HT-29): > 200 µM (inactive)
GI50 (A549): > 200 µM (inactive)
GI50 (MDA-MB-231): > 200 µM (inactive)
GI50 (OVCAR-4): > 200 µM (inactive)
GI50 (NCI-H226): > 200 µM (inactive)
GI50 (DU-145): > 200 µM (inactive)
GI50 (HCT-15): > 200 µM
GI50 (ACHN): > 200 µM (inactive)
GI50 (UO-31): > 200 µM (inactive)
GI50 (SK-MEL-28): > 200 µM (inactive)
GI50 (SK-MEL-5): > 200 µM (inactive)
GI50 (OVCAR-5): > 200 µM (inactive)
GI50 (M14): > 200 µM (inactive)
GI50 (MDA-N): > 200 µM (inactive)
GI50 (SN12C): > 200 µM (inactive)
GI50 (IGROV-1): > 200 µM (inactive)
GI50 (SF-268): > 200 µM (inactive)
GI50 (SF-539): > 200 µM (inactive)
GI50 (SNB-19): > 200 µM (inactive)
GI50 (COLO 205): > 200 µM (inactive)
GI50 (CAKI-1): > 200 µM (inactive)
GI50 (HCT-116): > 200 µM (inactive)

C/C(=C\CCC1=CC(=O)OC1)CCC1C2C(=O)CC(C)[C@@]3(C)CC[C@]1(C)[C@@]23C (some centres not stated)
GI50 (T47D): > 10 µM (inactive)
GI50 (TK-10): > 10 µM (inactive)
GI50 (SNB-75): > 10 µM (inactive)
GI50 (SR): 6.62 µM (inactive)
GI50 (SW-620): > 10 µM (inactive)
GI50 (PC-3): > 10 µM (inactive)
GI50 (LOX IMVI): > 10 µM (inactive)
GI50 (UACC-257): > 10 µM (inactive)
GI50 (OVCAR-8): > 10 µM (inactive)
GI50 (KM12): > 10 µM (inactive)
GI50 (EKVX): > 10 µM (inactive)
GI50 (HOP-62): > 10 µM (inactive)
GI50 (NCI-H23): > 10 µM (inactive)
GI50 (UACC-62): > 10 µM (inactive)
GI50 (RXF 393): > 10 µM (inactive)
GI50 (SF-295): > 10 µM (inactive)
GI50 (HT-29): > 10 µM (inactive)
GI50 (RPMI-8226): > 10 µM (inactive)
GI50 (SK-OV-3): > 10 µM (inactive)
GI50 (MOLT-4): > 10 µM (inactive)
GI50 (A549): > 10 µM (inactive)
GI50 (MDA-MB-231): > 10 µM (inactive)
GI50 (MCF7): > 10 µM (inactive)
GI50 (DU-145): > 10 µM (inactive)
GI50 (HCT-15): > 10 µM
GI50 (HL-60): 5.85 µM (inactive)
GI50 (Malme-3M): > 10 µM (inactive)
GI50 (K562): 9.44 µM (inactive)
GI50 (SK-MEL-28): > 10 µM (inactive)
GI50 (SK-MEL-5): > 10 µM (inactive)
GI50 (M14): > 10 µM (inactive)
GI50 (MDA-N): > 10 µM (inactive)
GI50 (SN12C): > 10 µM (inactive)
GI50 (IGROV-1): > 10 µM (inactive)
GI50 (SF-268): > 10 µM (inactive)
GI50 (COLO 205): > 10 µM (inactive)
GI50 (CAKI-1): > 10 µM (inactive)
GI50 (786-0): > 10 µM (inactive)
GI50 (HCC 2998): > 10 µM (inactive)
GI50 (CCRF-CEM): > 10 µM (inactive)

O=c1c2ccccc2nc2n1CCc1c-2[nH]c2ccccc12 [RUTAECARPINE]
GI50 (T47D): 15.7 µM (inactive)
GI50 (U-251): 15.3 µM (inactive)
GI50 (NCI/ADR-RES): 19.5 µM (inactive)
GI50 (TK-10): 29.6 µM (inactive)
GI50 (SNB-75): 18.9 µM (inactive)
GI50 (SR): 24.4 µM (inactive)
GI50 (SW-620): 18.6 µM (inactive)
GI50 (PC-3): 22.2 µM (inactive)
GI50 (OVCAR-8): 26.2 µM (inactive)
GI50 (KM12): > 10 µM (inactive)
GI50 (EKVX): 20.7 µM (inactive)
GI50 (HOP-92): 15.6 µM (inactive)
GI50 (NCI-H23): 17.8 µM (inactive)
GI50 (RXF 393): 18.8 µM (inactive)
GI50 (SF-295): 14.1 µM (inactive)
GI50 (RPMI-8226): 15 µM (inactive)
GI50 (SK-OV-3): 19.4 µM (inactive)
GI50 (MOLT-4): 19.9 µM (inactive)
GI50 (DU-145): 17.4 µM (inactive)
GI50 (HCT-15): > 10 µM
GI50 (HL-60): 24.2 µM (inactive)
GI50 (Malme-3M): 28.8 µM (inactive)
GI50 (UO-31): 14.9 µM (inactive)
GI50 (K562): 25.2 µM (inactive)
GI50 (SK-MEL-28): 25.2 µM (inactive)
GI50 (SK-MEL-5): 14.7 µM (inactive)
GI50 (OVCAR-5): 17.4 µM (inactive)
GI50 (M14): 17.1 µM (inactive)
GI50 (MDA-N): 15.2 µM (inactive)
GI50 (IGROV-1): 19.8 µM (inactive)
GI50 (SF-268): 26.8 µM (inactive)
GI50 (SNB-19): 15.8 µM (inactive)
GI50 (COLO 205): 21.8 µM (inactive)
GI50 (CAKI-1): 9.2 µM (inactive)
GI50 (HCT-116): 17.5 µM (inactive)

O=C(O)CCCc1ccccc1 [SODIUM PHENYLBUTYRATE]
GI50 (A498): 144 µM (inactive)
GI50 (Hs-578T): 182 µM (inactive)
GI50 (KM12): 126 µM (inactive)
GI50 (HOP-92): 80.2 µM (inactive)
GI50 (UACC-62): 172 µM (inactive)
GI50 (RXF 393): 193 µM (inactive)
GI50 (NCI-H460): 118 µM (inactive)
GI50 (MOLT-4): 117 µM (inactive)
GI50 (NCI-H522): 110 µM (inactive)
GI50 (HCT-15): 137 µM
GI50 (UO-31): 189 µM (inactive)
GI50 (K562): 102 µM (inactive)
GI50 (SK-MEL-5): 162 µM (inactive)
GI50 (SN12C): 102 µM (inactive)
GI50 (SF-539): 177 µM (inactive)
GI50 (HCC 2998): 144 µM (inactive)
GI50 (CCRF-CEM): 63.5 µM (inactive)
